Reference: PubChem BioAssay (NCI)
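Cultured in 96-well plates, cells were exposed to test compound for 48 hours across five concentrations. At the TGI there is no net growth.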

How the values were obtained:
Assay in all cases: NCI tumour cell line growth inhibition, 48 h
[1] = tested on: A498 renal
[2] = tested on: EKVX NSCLC
[3] = tested on: HL-60(TB) leukemia
[4] = tested on: KM12 colon
[5] = tested on: M14 melanoma
[6] = tested on: M19-MEL melanoma
[7] = tested on: MALME-3M melanoma
[8] = tested on: NCI-H522 lung
[9] = tested on: OVCAR-4 ovarian
[10] = tested on: SF-268 CNS
[11] = tested on: SK-MEL-2 melanoma
[12] = tested on: SK-OV-3 ovarian
[13] = tested on: U251 CNS
[14] = tested on: UO-31 renal
[15] = tested on: DU-145 prostate
[16] = tested on: HS 578T breast
[17] = tested on: MDA-MB-231 breast
[18] = tested on: MDA-N
[19] = tested on: SR leukemia
[20] = tested on: T-47D breast

| SMILES | TGI [1] [µM] | TGI [2] [µM] | TGI [3] [µM] | TGI [4] [µM] | TGI [5] [µM] | TGI [6] [µM] | TGI [7] [µM] | TGI [8] [µM] | TGI [9] [µM] | TGI [10] [µM] | TGI [11] [µM] | TGI [12] [µM] | TGI [13] [µM] | TGI [14] [µM] | TGI [15] [µM] | TGI [16] [µM] | TGI [17] [µM] | TGI [18] [µM] | TGI [19] [µM] | TGI [20] [µM] |
| --- | --- | --- | --- | --- | --- | --- | --- | --- | --- | --- | --- | --- | --- | --- | --- | --- | --- | --- | --- | --- |
| COC(=O)CC(C(C(=O)OC)C(=O)OC)N1C(=O)OCC1c1ccccc1 (stereo not drawn) | > 100 | > 100 | > 100 | > 100 | > 100 | > 100 | > 100 | > 100 | > 100 | > 100 | > 100 | > 100 | > 100 | > 100 | – | – | – | – | – | – |
| O=C(O)c1cc2c(cc1CC(Cc1ccc3c(c1)CCC3)C(=O)O)CCC2 (stereo not drawn) | > 100 | > 100 | > 100 | > 100 | > 100 | – | > 100 | > 100 | > 100 | > 100 | > 100 | > 100 | > 100 | > 100 | > 100 | > 100 | > 100 | > 100 | > 100 | > 100 |
| CCN(CC)CCc1c2c(nc3ccccc13)C(=O)c1cccnc1C2=O | 5.29 | 13.7 | 1.41 | 6.57 | 1.73 | – | 4.49 | 6.46 | 3.69 | > 100 | 10.4 | 4.22 | 20 | – | 1.84 | > 100 | 6.72 | 4.54 | 0.993 | 5.31 |
| CCOc1cc(NC(C)=O)ccc1C(=O)NNC(=O)c1ccccc1OC(C)=O | 73.8 | > 70.4 | > 42.2 | > 100 | 26.6 | – | > 100 | > 100 | > 52.4 | > 100 | > 100 | > 100 | > 100 | > 100 | > 67.7 | > 100 | > 100 | > 100 | > 34.7 | > 46.4 |
| C=C1CC(COc2cc(=O)oc3ccccc23)(c2ccccc2)OC1=O (stereo not drawn) | 7.47 | 13.5 | 6.34 | 12.7 | 3.3 | – | 3.11 | 3.88 | 4.64 | 29.7 | 2.33 | 16.1 | 25.3 | 16 | 5.74 | 27.5 | 11.9 | 5.57 | > 28 | 5.27 |
| CCCCCCCCCCCCCCCCCCNc1ccn(C2OC(COP(=O)(O)OCC3OC(n4ccc(NC(=O)CCCCCCCCCCCCCCCCC)nc4=O)C(OC(C)=O)C3OC(C)=O)C(OC(C)=O)C2OC(C)=O)c(=O)n1 (stereo not drawn) | > 100 | > 100 | > 100 | > 100 | > 100 | – | > 100 | > 100 | > 100 | > 100 | > 100 | > 100 | > 100 | > 100 | > 100 | > 100 | > 100 | > 100 | > 100 | > 100 |
| c1ccc(C2C3=C(Nc4ncnn42)c2ccccc2C3)cc1 (stereo not drawn) | > 100 | > 100 | > 100 | > 100 | > 100 | > 100 | > 100 | 26.5 | > 100 | > 100 | > 100 | > 100 | 17.7 | > 100 | – | – | – | – | – | – |
| Cc1cc(N(CCC#N)CCC#N)ccc1/C=N/NC(=O)c1cc(Cl)ccc1O | > 100 | > 100 | > 100 | – | > 100 | – | > 100 | > 100 | > 100 | > 100 | > 100 | > 100 | > 100 | – | > 100 | > 100 | > 100 | > 100 | > 100 | > 100 |
| Nc1ccc2nc(-c3ccccn3)c(-c3ccccn3)nc2c1 | > 100 | > 100 | > 100 | > 100 | > 100 | – | > 100 | > 100 | > 100 | > 100 | > 100 | – | > 100 | > 100 | > 100 | > 100 | > 100 | > 100 | > 100 | > 100 |
| CN(C)CCCOC(=O)C(c1ccccc1)C1(O)CCSCC1 (stereo not drawn) | > 100 | > 100 | > 100 | > 100 | > 100 | – | > 100 | > 100 | > 100 | > 100 | > 100 | > 100 | > 100 | > 100 | > 100 | > 100 | > 100 | > 100 | > 100 | > 100 |
| COCOC1/C=C/CCCC#C[C@H](C)C(=O)CC1 (stereo partly drawn) | 25.4 | 23.1 | 5.12 | 17 | 21 | – | 19.4 | 18.1 | 22.3 | 26.5 | 31.3 | 29.3 | 24.8 | 28 | 28 | 46.4 | 17 | 24.3 | > 33.2 | 31.3 |
| OC1C2[C@@H](O)CCCN2C[C@@H](O)[C@H]1O (stereo partly drawn) | > 100 | > 100 | > 100 | > 100 | > 100 | – | > 100 | > 100 | > 100 | > 100 | > 100 | > 100 | > 100 | > 100 | > 100 | > 100 | > 100 | > 100 | > 100 | > 100 |
| CC(C)(N=NC(C)(C)C(=O)NCCO)C(=O)NCCO | > 100 | > 100 | > 100 | > 100 | > 100 | – | > 100 | > 100 | > 100 | > 100 | > 100 | > 100 | > 100 | > 100 | > 100 | > 100 | > 100 | > 100 | > 100 | > 100 |
| CN(CCC#N)c1ccc(/C=C2\SC(=S)NC2=O)cc1 | > 100 | > 100 | > 100 | > 100 | > 100 | – | > 100 | > 100 | > 100 | > 100 | > 100 | > 100 | > 100 | > 100 | > 100 | > 100 | > 100 | > 100 | > 100 | > 100 |
| O=C1/C(=C/c2ccccc2)N=C(c2ccccc2)N1n1c(-c2ccccc2)nc2ccccc2c1=O | > 100 | > 100 | > 100 | > 100 | > 100 | – | > 100 | > 100 | > 100 | > 100 | – | > 100 | > 100 | > 100 | > 100 | > 100 | > 100 | > 100 | > 100 | > 100 |
| COc1ccc(N2C(=O)C3c4[nH]c5ccc(OCc6ccccc6)cc5c4C4CCC(C(C)(C)C)CC4C3C2=O)cc1 (stereo not drawn) | > 100 | > 100 | > 100 | > 100 | > 100 | – | 54.1 | > 100 | 59.4 | > 100 | > 100 | > 100 | 60.4 | – | > 100 | > 100 | > 100 | > 100 | > 100 | 55.5 |
| O=c1nc(N2CCN(c3ccccc3)CC2)ccn1C1OC(CO)C(O)C1O (stereo not drawn) | > 100 | > 100 | 63.5 | > 100 | > 100 | – | > 100 | > 100 | > 100 | > 100 | > 100 | > 100 | > 100 | > 100 | > 100 | > 100 | > 100 | > 100 | > 100 | 65.6 |
| CC(=O)OCC(C)C1=C(O)C(=O)C2(C)C/C=C(/C)CC/C=C(\C)CCC(O)C(C)CCC12 (stereo not drawn) | 36 | 32 | 66.7 | 28.7 | 33.8 | – | 31.8 | 32.6 | 37 | 35.4 | 39.3 | – | 30.8 | 27.2 | 31.7 | 52.9 | 30.4 | 33.6 | 34.9 | 14.9 |
| COCOC1/C=C/CCCCC2=C(C)C=C(C1)O2 (stereo not drawn) | > 100 | > 100 | > 100 | > 100 | > 100 | – | > 100 | > 100 | > 100 | > 100 | > 100 | > 100 | > 100 | > 100 | > 100 | > 100 | > 100 | > 100 | > 100 | > 100 |
| O=C(Nc1ccc(Br)cc1)c1c(-c2ccccc2)c2ccc(O)cc2oc1=O | > 10 | > 10 | > 10 | > 10 | > 10 | – | > 10 | > 10 | > 10 | > 10 | > 10 | > 10 | > 10 | > 10 | > 10 | > 10 | > 10 | > 10 | > 10 | > 10 |
| C[C@@]12[C@H]3CC[C@@H]1[C@H](O)C(=O)N2CC3 | > 100 | > 100 | > 100 | > 100 | > 100 | – | > 100 | > 100 | > 100 | > 100 | > 100 | > 100 | > 100 | > 100 | > 100 | > 100 | > 100 | > 100 | > 100 | > 100 |
| OCCCCCNc1c2ccccc2nc2ccccc12 | 12.7 | 17.5 | > 39 | 14.3 | 6.91 | – | 4.15 | 10.2 | 11.4 | 11.4 | 7.43 | 13.7 | 20.8 | 10 | 25.3 | 8.57 | 10.7 | 7.42 | > 23.2 | 8.38 |
| COc1ccccc1Nc1nc(N)nc(N)c1N=O | > 100 | > 100 | > 100 | > 100 | > 100 | – | > 100 | > 100 | > 100 | > 100 | > 100 | > 100 | > 100 | > 100 | > 100 | > 100 | > 100 | > 100 | > 100 | > 100 |
| Brc1ccc(CCNCCN2CCCCC2)cc1 | 32 | > 100 | > 100 | 30.2 | 29.6 | – | 31.7 | 30.3 | 48.1 | 33.3 | 34.5 | 42 | 32.4 | 24.6 | > 100 | 38.1 | 21.4 | 23.8 | > 100 | 32 |
| C[N+]1=C2[B-](C(C)(C)C)=[N+](C(C)(C)C)[B-]2(C(C)(C)C)[N+](C)=C2[B-](C(C)(C)C)=[N+](C(C)(C)C)[B-]21C(C)(C)C (stereo not drawn) | > 100 | > 100 | > 100 | > 100 | > 100 | – | > 100 | > 100 | > 100 | > 100 | > 100 | > 100 | > 100 | > 100 | > 100 | > 100 | > 100 | > 100 | > 100 | > 100 |
